Structures are written as SMILES.

The results in this text go back to patent publication US4162253A, “Acaricidal agents” (Pfizer Inc., priority 1975, dated 1979).

The test relates to Adult Boophilus microplus. Kind of test: Topical application test on fully engorged adult Boophilus microplus ticks; overall reduction in anticipated reproduction (eggs laid and hatching). It is filed as in vivo. The settings on record: Rhipicephalus microplus, read-out: In Vitro Activity (topical application) vs. Adult Boophilus microplus % Effect; for inhibition at 0.5 µg/tick: 0.5 μg/tick; for inhibition at 1 µg/tick: 1 μg/tick; for inhibition at 2 µg/tick: 2 μg/tick; for inhibition at 4 µg/tick: 4 μg/tick; for inhibition at 8 µg/tick: 8 μg/tick; for inhibition at 10 µg/tick: 10 μg/tick. The procedure: In one test, five freshly collected, fully engorged Boophilus microplus adult ticks are used for each acaricidal compound. Using a micro-pipette, 10 micro-liters of a solution containing 10 micro-grams of the acaricidal compound in ethanol or acetone, is applied to the dorsal surface of each of the ticks. The treated ticks are placed in weighted 1"×2" glass vials, weighted and stored at 26° C. and 80% relative humidity in plastic boxes for two weeks. The ticks are then removed from the vials and the vials weighted to give the weight of eggs laid by the ticks. Any reduction in the egg laying of the treated ticks is caculated as a percentage of the eggs laid by untreated control ticks.
The eggs are returned to the incubator for a further 3 weeks after which time the percentage of eggs hatching is estimated.
The percentage effect is calculated as the overall reduction in the anticipated reproduction of the ticks using the weight of eggs laid and the percentage of eggs hatching.
The test may be repeated using smaller amounts of the acaricidal compound for sufficiently active compounds.
The activity of many of the compounds of the Examples detailed hereinafter against the tick Boophilus microplus has been determined.

Take `CCCCCCCCCCCCCCCCC[N+]1=C2SC(C)=C(c3ccccc3)N2CCC1` [Example 15]: the inhibition at 0.5 µg/tick was 11%, the inhibition at 1 µg/tick came out at 9%, the inhibition at 2 µg/tick was 29% and the inhibition at 4 µg/tick is 99.9%. The inhibition at 8 µg/tick was 100% and the inhibition at 10 µg/tick is 100%.
Take `CCCCCCCCCCCCCCCC[N+]1=C2SC(c3ccccc3)=CN2CCC1` [Example 16]: the inhibition at 10 µg/tick is 33%.
For the molecule `CCCCCCCCCCCCCCCC[N+]1=C2SC=C(C)N2CCC1` [Example 19], the inhibition at 2 µg/tick came out at 0%, the inhibition at 4 µg/tick came out at 9%, the inhibition at 8 µg/tick was 28% and the inhibition at 10 µg/tick was 49%.
`CCCCCCCCCCCCCCCC[N+]1=C2SC=C(C)N2CCCC1` [Example 20, 9-cetyl-3-methyl-5,6,7,8-tetrahydro-thiazolo[3,2-a][1,3]diazepinium bromide]: the inhibition at 0.5 µg/tick is 0%, the inhibition at 1 µg/tick was 29%, the inhibition at 2 µg/tick was found to be 67% and the inhibition at 4 µg/tick worked out at 99%. Also, the inhibition at 8 µg/tick was found to be 100% and the inhibition at 10 µg/tick amounted to 100%.
For `CCCCCCCCCCCCCCCC[N+]1=C2SC=C(c3ccccc3)N2CCCC1` [Example 21], the inhibition at 1 µg/tick amounted to 0%, the inhibition at 2 µg/tick is 83%, the inhibition at 4 µg/tick amounted to 98% and the inhibition at 8 µg/tick was 100%. Moreover, the inhibition at 10 µg/tick amounted to 100%.
For `CCCCCCCCCCCCCCCCCC[N+]1=C2SC=C(c3ccccc3)N2CCCC1` [Example 22], the inhibition at 10 µg/tick was 57%.
In the case of `CCCCCCCCCCCCCCCC[N+]1=C2SC(C)=C(c3ccccc3)N2CCCC1` [Example 23, 9-hexadecyl-2-methyl-3-phenyl-5,6,7,8-tetrahydro-thiazolo[3,2-a][1,3]diazepinium bromide], the inhibition at 0.5 µg/tick amounted to 6%, the inhibition at 1 µg/tick was 60%, the inhibition at 2 µg/tick is 98% and the inhibition at 4 µg/tick is 100%. The inhibition at 8 µg/tick stood at 100% and the inhibition at 10 µg/tick came out at 100%.
Turning to `CCCCCCCCCCCCCCC[N+]1=C2SC=C(C)N2CCCC1` [Example 24], the inhibition at 0.5 µg/tick was found to be 13%, the inhibition at 1 µg/tick turned out to be 48%, the inhibition at 2 µg/tick is 70% and the inhibition at 4 µg/tick was 97%. The inhibition at 8 µg/tick was 100% and the inhibition at 10 µg/tick came out at 100%.
Take `CCCCCCCCCCCCCCCCCC[N+]1=C2SC=C(C)N2CCCC1` [Example 25]: the inhibition at 1 µg/tick was 20%, the inhibition at 2 µg/tick was found to be 40%, the inhibition at 4 µg/tick is 82% and the inhibition at 8 µg/tick was found to be 78%. For the same molecule, the inhibition at 10 µg/tick was determined as 98%.
Consider `CCCCCCCCCCCCCCC[N+]1=C2SC=C(c3ccccc3)N2CCCC1` [Example 26, 9-Pentadecyl-3-phenyl-5,6,7,8-tetrahydrothiazolo[3,2-a][1,3]diazepinium bromide], for which the inhibition at 0.5 µg/tick came out at 14%, the inhibition at 1 µg/tick turned out to be 12%, the inhibition at 2 µg/tick was determined as 43% and the inhibition at 4 µg/tick is 61%. Further, the inhibition at 8 µg/tick is 92% and the inhibition at 10 µg/tick was 99%.
Consider `CCCCCCCCCCCCC[N+]1=C2SC=C(C)N2CCCC1` [Example 27], for which the inhibition at 0.5 µg/tick was determined as 40%, the inhibition at 1 µg/tick amounted to 38%, the inhibition at 2 µg/tick came out at 55% and the inhibition at 4 µg/tick amounted to 63%. Further, the inhibition at 8 µg/tick came to 75% and the inhibition at 10 µg/tick was determined as 86%.
Regarding `CCCCCCCCCCCCCC[N+]1=C2SC=C(C)N2CCCC1` [Example 28], the inhibition at 1 µg/tick was 13%, the inhibition at 2 µg/tick was 52%, the inhibition at 4 µg/tick is 74% and the inhibition at 8 µg/tick was 83%. Further, the inhibition at 10 µg/tick stood at 100%.
The matching figures for `CCCCCCCCCCCCCC[N+]1=C2SC=C(c3ccccc3)N2CCCC1` [Example 29]: 19%, 11%, 55%, 100% and 100%.
On the same counts, the results for `CCCCCCCCCCCCCCCCC[N+]1=C2SC=C(C)N2CCCC1` [Example 30] are 13%, 47%, 56%, 95% and 100%.
Take `CCCCCCCCCCCCC[N+]1=C2SC=C(c3ccccc3)N2CCCC1` [Example 31]: the inhibition at 4 µg/tick is 0%, the inhibition at 8 µg/tick was determined as 52% and the inhibition at 10 µg/tick came to 100%.
With `CCCCCCCCCCCCCCCCC[N+]1=C2SC=C(c3ccccc3)N2CCCC1` [Example 32], the inhibition at 0.5 µg/tick was found to be 0%, the inhibition at 1 µg/tick came out at 12%, the inhibition at 2 µg/tick was 66% and the inhibition at 4 µg/tick turned out to be 94%. Also, the inhibition at 8 µg/tick turned out to be 95% and the inhibition at 10 µg/tick amounted to 100%.
Turning to `CCCCCCCCCCCCCCCC[N+]1=C2SC(c3ccccc3)=CN2CCCC1` [Example 34], the inhibition at 10 µg/tick worked out at 32%.
In the case of `CCCCCCCCCCCCCCCC[N+]1=C2SC3=C(CCCC3)N2CCCC1` [Example 35, 9-hexadecyl-2,3-tetramethylene-5,6,7,8-tetrahydrothiazolo[3,2-a][1,3] diazepinium bromide], the inhibition at 0.5 µg/tick turned out to be 0%, the inhibition at 1 µg/tick was 8%, the inhibition at 2 µg/tick stood at 13% and the inhibition at 4 µg/tick was determined as 70%. The inhibition at 8 µg/tick amounted to 100% and the inhibition at 10 µg/tick amounted to 100%.
Take `CCCCCCCCCCCCCCCC[N+]1=C2SC=CN2CCCC1` [Example 36]: the inhibition at 10 µg/tick turned out to be 26%.
On to `CCCCCCCCCCCC[N+]1=C2SC=C(c3ccccc3)N2CCCC1` [Example 37], for which the inhibition at 10 µg/tick stood at 87%.
Same read-out and setting: with `CCCCCCCCCCCC[N+]1=C2SC=C(C)N2CCCC1` [Example 38] the figure was 30%.
With `CCCCCCCCCCCCCCCC[N+]1=C2SC=C(c3ccc(F)cc3)N2CCCC1` [Example 41], the inhibition at 0.5 µg/tick was determined as 5%, the inhibition at 1 µg/tick came out at 18%, the inhibition at 2 µg/tick turned out to be 18% and the inhibition at 4 µg/tick amounted to 16%. Also, the inhibition at 8 µg/tick was 43% and the inhibition at 10 µg/tick turned out to be 92%.
Consider `CCCCCCCCCCCCCCCC[N+]1=C2SC(C)=C(c3ccccc3)N2CC1` [Example 42, 7-cetyl-2-methyl-3-phenyl--5,6-dihydro-imidazo[2,1-b]thiazolium bromide], for which the inhibition at 0.5 µg/tick came to 6%, the inhibition at 1 µg/tick was determined as 52%, the inhibition at 2 µg/tick amounted to 50% and the inhibition at 4 µg/tick was 90%. The inhibition at 8 µg/tick amounted to 100% and the inhibition at 10 µg/tick came out at 100%.
As for `CCCCCCCCCCCCCCC[N+]1=C2SC(C)=C(c3ccccc3)N2CC1` [Example 43], the inhibition at 0.5 µg/tick came to 4%, the inhibition at 1 µg/tick was found to be 23%, the inhibition at 2 µg/tick worked out at 72% and the inhibition at 4 µg/tick is 96%. Besides, the inhibition at 8 µg/tick stood at 100% and the inhibition at 10 µg/tick is 100%.
As to `CCCCCCCCCCCCCCCCC[N+]1=C2SC(C)=C(c3ccccc3)N2CC1` [Example 44], the inhibition at 0.5 µg/tick was found to be 0%, the inhibition at 1 µg/tick was 63%, the inhibition at 2 µg/tick worked out at 89% and the inhibition at 4 µg/tick was determined as 93%. The inhibition at 8 µg/tick was found to be 100% and the inhibition at 10 µg/tick came to 100%.
Turning to `CCCCCCCCCCCCCCCCCC[N+]1=C2SC(C)=C(c3ccccc3)N2CC1` [Example 45], the inhibition at 10 µg/tick is 88%.
The same measure, in the same setting: with `CCCCCCCCCC[N+]1=C2SC(C)=C(c3ccccc3)N2CC1` [Example 46] the figure was 95%.
